The values below come from ChEMBL document CHEMBL5579877, “Design and Evaluation of 3-Phenyloxetane Derivative Agonists of the Glucagon-Like Peptide-1 Receptor” (J Med Chem, 2024).

Calls of active or inactive are those of the source.

Series [1] in a line: Half-life in ICR mouse at 2 mg/kg, iv by LC-MS/MS analysis. The format is ADME, organism-based. The settings on record: in vivo.
Series [2] can be described thus: Cmax in cynomolgus monkey at 20 mg/kg, po. The format is ADME, organism-based, Macaca fascicularis. The settings on record: in vivo.
Series [3] concerns the target T1, 5-hydroxytryptamine receptor 1A (Homo sapiens) (UniProt P08908).
T1 sequence (whole entry): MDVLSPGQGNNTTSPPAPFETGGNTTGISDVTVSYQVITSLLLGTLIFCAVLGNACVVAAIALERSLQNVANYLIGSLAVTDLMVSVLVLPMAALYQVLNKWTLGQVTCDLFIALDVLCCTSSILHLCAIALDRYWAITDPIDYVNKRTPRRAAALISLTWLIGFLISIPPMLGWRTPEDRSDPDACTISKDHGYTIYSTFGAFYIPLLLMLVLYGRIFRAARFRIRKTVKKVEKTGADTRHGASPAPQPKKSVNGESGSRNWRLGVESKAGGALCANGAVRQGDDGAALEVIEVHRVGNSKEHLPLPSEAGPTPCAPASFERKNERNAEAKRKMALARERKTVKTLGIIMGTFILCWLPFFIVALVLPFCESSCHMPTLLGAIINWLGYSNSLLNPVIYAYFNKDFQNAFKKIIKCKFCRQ
The experiment in a line: Inhibition of 5HT1A (unknown origin) relative to control. The settings on record: concentration not given here.

Series [4] is described as follows: Apparent volume of distribution in ICR mouse at 2 mg/kg, iv by LC-MS/MS analysis. The settings on record: in vivo, read-out: Vz. The format is ADME, organism-based.
Series [5] can be described thus: Apparent volume of distribution in rat at 2 mg/kg, iv by LC-MS/MS analysis. The format is ADME, organism-based. To be noted: in vivo, read-out: Vz.
Series [6] addresses T2, 5-hydroxytryptamine receptor 1A (Homo sapiens, UniProt P08908).
T2 sequence (P08908 whole entry): T1 sequence (whole entry)
The experiment in a line: Inhibition of 5HT1A (unknown origin).

The nature of series [7]: Cmax in rat at 5 mg/kg, po by LC-MS/MS analysis. The format is ADME, organism-based. To be noted: in vivo.
Series [8] is described as follows: Oral bioavailability in ICR mouse at 5 mg/kg by LC-MS/MS analysis. The format is ADME, organism-based. To be noted: in vivo.
Series [9] in a line: AUC in rat at 2 mg/kg, iv by LC-MS/MS analysis. The format is ADME, organism-based. The settings on record: in vivo.
For series [10], the target named is T3, Cytochrome P450 1A2 (Homo sapiens, UniProt P05177).
T3 sequence (P05177 whole entry): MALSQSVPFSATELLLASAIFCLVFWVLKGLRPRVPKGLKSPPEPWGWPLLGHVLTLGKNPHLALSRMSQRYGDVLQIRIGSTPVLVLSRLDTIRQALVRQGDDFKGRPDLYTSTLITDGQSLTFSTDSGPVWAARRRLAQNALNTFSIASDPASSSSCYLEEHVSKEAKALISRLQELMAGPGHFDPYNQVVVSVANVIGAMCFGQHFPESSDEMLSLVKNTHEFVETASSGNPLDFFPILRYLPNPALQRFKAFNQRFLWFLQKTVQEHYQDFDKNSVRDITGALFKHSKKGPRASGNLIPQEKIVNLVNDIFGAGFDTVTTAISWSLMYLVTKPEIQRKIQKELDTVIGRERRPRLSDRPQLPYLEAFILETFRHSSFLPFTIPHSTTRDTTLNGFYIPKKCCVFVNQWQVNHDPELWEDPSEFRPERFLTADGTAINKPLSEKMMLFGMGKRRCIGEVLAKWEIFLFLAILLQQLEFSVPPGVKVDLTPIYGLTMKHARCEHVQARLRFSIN
The experiment in a line: Inhibition of CYP1A2 in human liver microsomes using phenacetin as substrate preincubated for 5 mins followed by NADPH addition and measured after 10 mins by LC-MS/MS analysis. The format is ADME, Microsome.

Series [11] is described as follows: Oral bioavailability in rat at 5 mg/kg by LC-MS/MS analysis. The format is ADME, organism-based. The settings on record: in vivo.
Series [12] is described as follows: Oral bioavailability in cynomolgus monkey at 20 mg/kg. The format is ADME, organism-based, Macaca fascicularis. The settings on record: in vivo.
Series [13] has as its target T4, Glucagon-like peptide 1 receptor (Rattus norvegicus) (UniProt P32301).
T4 sequence (whole entry): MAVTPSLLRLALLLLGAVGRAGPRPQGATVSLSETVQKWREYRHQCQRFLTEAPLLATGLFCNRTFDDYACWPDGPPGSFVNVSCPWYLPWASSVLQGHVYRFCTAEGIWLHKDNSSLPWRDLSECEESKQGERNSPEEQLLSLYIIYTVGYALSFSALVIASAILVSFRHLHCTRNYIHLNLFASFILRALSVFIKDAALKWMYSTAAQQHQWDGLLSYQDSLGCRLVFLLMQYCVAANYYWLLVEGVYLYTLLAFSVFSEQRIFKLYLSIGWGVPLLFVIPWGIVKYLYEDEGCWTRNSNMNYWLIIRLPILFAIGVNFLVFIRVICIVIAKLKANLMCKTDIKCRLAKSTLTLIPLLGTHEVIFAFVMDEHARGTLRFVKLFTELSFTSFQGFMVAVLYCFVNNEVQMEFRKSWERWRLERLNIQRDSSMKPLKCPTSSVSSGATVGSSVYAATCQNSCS
The experiment in a line: Activation of rat GLP-1R.

Series [14] deals with T5, Glucagon-like peptide 1 receptor (Mus musculus) (UniProt O35659).
T5 sequence (whole entry): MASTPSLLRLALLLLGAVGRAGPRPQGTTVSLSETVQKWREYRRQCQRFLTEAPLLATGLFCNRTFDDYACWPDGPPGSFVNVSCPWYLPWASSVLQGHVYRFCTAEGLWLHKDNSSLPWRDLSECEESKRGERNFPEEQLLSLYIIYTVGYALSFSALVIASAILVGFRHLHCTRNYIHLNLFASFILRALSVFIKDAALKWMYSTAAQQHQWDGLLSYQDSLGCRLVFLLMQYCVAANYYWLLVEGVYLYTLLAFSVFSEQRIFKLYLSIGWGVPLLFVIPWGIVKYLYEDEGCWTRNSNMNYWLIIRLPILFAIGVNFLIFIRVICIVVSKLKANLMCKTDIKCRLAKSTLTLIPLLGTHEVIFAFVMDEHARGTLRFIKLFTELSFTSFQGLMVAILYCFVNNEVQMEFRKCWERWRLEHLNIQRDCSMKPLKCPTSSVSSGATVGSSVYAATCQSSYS
The experiment in a line: Activation of mouse GLP-1R.

Series [15] can be described thus: Drug distribution in rat liver at 5 mg/kg, po. The format is ADME, organism-based. To be noted: in vivo.
Series [16] in a line: Efflux ratio of permeability across basolateral to apical side over apical to basolateral side in human Caco-2. The format is ADME, cell-based.
Series [17] concerns the target T6, 5-hydroxytryptamine receptor 2A (Homo sapiens, UniProt P28223). The experiment in a line: Inhibition of 5HT2A (unknown origin).
A short description of series [18]: Drug distribution in rat stomach at 5 mg/kg, po. The format is ADME, organism-based. To be noted: in vivo.
Series [19] addresses T6, 5-hydroxytryptamine receptor 2A. The experiment in a line: Inhibition of 5HT2A (unknown origin) relative to control. To be noted: concentration not given here.
Series [20] has as its target T7, Glucagon-like peptide 1 receptor (Homo sapiens, UniProt P43220). The experiment in a line: Activation of human GLP-1R. To be noted: filed as activator.
In series [21] the target is T7, Glucagon-like peptide 1 receptor. The experiment in a line: Agonist activity at GLP-1R (unknown origin) assessed as beta-arrestin 1 recruitment. The format is functional. In general terms: Activated receptors often draw arrestin, which recruitment assays turn into a signal.
Series [22] can be described thus: Drug distribution in rat intestine at 5 mg/kg, po. The format is ADME, organism-based. The settings on record: in vivo.
The target of series [23] is hERG (KCNH2) (Homo sapiens, UniProt Q12809). The experiment in a line: Inhibition of human ERG at 10 uM by whole cell patch clamp method relative to control. The format is toxicity. (In general: Patch clamp records ionic current or voltage across a cell membrane.)
For series [24], the species on record is Macaca mulatta. The experiment in a line: Activation of monkey GLP-1R. The settings on record: filed as activator.
Series [25] has as its target T7, Glucagon-like peptide 1 receptor. The experiment in a line: Agonist activity at GLP-1R (unknown origin) assessed as beta-arrestin 2 recruitment. The format is functional.

T7 sequence (P43220 whole entry): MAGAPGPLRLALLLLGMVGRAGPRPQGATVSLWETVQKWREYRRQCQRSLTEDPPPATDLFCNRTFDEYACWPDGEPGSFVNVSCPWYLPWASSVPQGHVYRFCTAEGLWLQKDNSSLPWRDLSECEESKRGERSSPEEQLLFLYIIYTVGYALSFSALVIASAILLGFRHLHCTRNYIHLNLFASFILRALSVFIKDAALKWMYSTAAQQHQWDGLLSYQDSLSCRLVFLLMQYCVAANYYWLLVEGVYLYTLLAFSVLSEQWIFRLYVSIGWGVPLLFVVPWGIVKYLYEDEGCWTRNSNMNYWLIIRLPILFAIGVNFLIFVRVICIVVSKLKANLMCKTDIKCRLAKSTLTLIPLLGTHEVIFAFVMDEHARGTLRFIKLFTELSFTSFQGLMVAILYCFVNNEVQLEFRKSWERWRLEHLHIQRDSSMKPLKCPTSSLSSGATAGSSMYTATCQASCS
T6 sequence (P28223 whole entry): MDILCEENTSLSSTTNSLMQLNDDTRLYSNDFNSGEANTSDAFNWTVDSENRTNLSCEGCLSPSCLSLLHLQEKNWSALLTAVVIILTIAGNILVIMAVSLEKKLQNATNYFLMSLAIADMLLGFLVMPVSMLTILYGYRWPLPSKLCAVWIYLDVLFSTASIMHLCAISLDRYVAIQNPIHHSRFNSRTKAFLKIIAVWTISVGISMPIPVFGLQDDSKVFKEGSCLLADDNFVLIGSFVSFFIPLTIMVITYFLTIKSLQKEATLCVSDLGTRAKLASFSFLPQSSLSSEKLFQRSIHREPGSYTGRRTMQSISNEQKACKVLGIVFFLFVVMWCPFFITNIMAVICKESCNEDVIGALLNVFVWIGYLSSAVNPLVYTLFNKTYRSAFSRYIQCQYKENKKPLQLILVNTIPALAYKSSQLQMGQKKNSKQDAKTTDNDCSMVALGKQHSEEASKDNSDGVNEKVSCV
Chain of hERG (KCNH2) (Q12809 whole entry): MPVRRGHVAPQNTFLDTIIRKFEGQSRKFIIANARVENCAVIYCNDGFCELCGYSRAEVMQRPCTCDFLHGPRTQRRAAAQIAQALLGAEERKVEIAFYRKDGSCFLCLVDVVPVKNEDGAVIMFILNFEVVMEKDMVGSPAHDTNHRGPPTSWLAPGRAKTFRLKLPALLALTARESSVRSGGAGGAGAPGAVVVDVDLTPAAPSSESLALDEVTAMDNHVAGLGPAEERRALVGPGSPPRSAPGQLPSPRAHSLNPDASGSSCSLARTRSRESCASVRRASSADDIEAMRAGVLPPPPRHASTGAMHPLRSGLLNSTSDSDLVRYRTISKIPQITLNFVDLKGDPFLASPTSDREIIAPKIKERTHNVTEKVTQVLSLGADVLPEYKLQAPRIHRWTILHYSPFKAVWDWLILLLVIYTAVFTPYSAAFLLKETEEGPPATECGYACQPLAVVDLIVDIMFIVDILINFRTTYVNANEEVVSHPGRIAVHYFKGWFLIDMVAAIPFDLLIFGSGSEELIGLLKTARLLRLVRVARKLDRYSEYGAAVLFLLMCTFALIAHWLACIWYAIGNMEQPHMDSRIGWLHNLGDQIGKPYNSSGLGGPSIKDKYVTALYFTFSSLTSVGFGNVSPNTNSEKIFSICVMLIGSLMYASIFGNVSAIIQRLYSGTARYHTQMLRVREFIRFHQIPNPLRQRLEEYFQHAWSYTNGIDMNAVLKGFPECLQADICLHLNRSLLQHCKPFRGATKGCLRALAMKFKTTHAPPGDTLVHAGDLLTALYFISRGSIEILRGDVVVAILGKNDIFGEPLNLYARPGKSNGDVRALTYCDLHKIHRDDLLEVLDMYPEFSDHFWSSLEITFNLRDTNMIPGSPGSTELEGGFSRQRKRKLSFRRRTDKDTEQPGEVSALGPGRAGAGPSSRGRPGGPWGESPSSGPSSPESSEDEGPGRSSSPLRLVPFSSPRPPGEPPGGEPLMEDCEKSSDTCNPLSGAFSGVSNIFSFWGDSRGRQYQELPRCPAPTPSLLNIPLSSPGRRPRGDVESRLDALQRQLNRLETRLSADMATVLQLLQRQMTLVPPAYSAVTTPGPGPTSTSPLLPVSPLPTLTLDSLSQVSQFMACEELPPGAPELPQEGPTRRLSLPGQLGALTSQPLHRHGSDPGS

Broadly, the half-life is the time needed for the level to fall by half in the phase considered. For orientation: Cmax means the peak of the concentration-time curve. One may read the inhibition as the change of the read-out against control, counted positive when it falls. As usually defined, the IC50 is the point on the concentration scale where inhibition reaches its midpoint. In general, bioavailability refers to dose-corrected exposure relative to a reference, in per cent. By AUC is commonly meant the area under the concentration-time curve, a measure of exposure. In turn, `N#Cc1ccc(COc2cccc(C3CCN(Cc4nc5ccc(C(=O)O)cc5n4C[C@@H]4CCO4)CC3)n2)c(F)c1` [DANUGLIPRON] had a half-life in series [1] of 2.46 h. Besides, the highest concentration (Cmax) amounted to 163 µM in [2] and 110 ng/mL in series [7]. The inhibition in series [3] amounted to 86.9%. The Vd stood at 4.26 L/kg in series [4] and 1.98 L/kg in series [5]. Also, the IC50 in series [6] was 2.42 µM; in series [10], > 10 µM. The bioavailability in [8] was determined as 54.2%; in series [11], 10.2%; in series [12] it was 3.41%. For the same molecule, the AUC in series [9] is 520 ng·h/mL.
A word on the efflux ratio: it is the permeability from basolateral to apical divided by that in the opposite direction, in the common usage. As to `O=C(O)c1ccc2nc(CN3CCC(c4cccc(OCc5ccc(C6COC6)cc5F)n4)CC3)n(C[C@@H]3CCO3)c2c1`, in [1], the half-life is 7.04 h. Moreover, the result in series [13], in series [14], in series [21] and in series [25] was inactive. Moreover, the Drug uptake result in [15], in series [18] and in series [22] was “Active” each time. The figures for the Vd in series [4] and in series [5] were 12.2 L/kg and 1.37 L/kg, respectively. The efflux ratio in series [16] came out at 5.26. Besides, the IC50 in [17] was 8.76 µM; in [10], > 10 µM. In series [19], this molecule registered an inhibition of 57.8%. In addition, the Cmax in [7] is 190 ng/mL. The bioavailability in series [8] was 53.1%; in series [11], 12.8%; in [12], 32.8%. The molecule also returned an AUC in series [9] of 530 ng·h/mL. For the same molecule, the outcome in [20] and in series [24] was Active. In [23], this molecule came in with an inhibition at 10 µM of 40.7%.
